Here are results for 27 compounds from ChEMBL document CHEMBL4673222, “Discovery of a Bioactive Inhibitor with a New Scaffold for Cystathionine γ-Lyase” (J Med Chem, 2019).

Assay [1] deals with T1, Cystathionine gamma-lyase (Homo sapiens, UniProt P32929). As to the kind of experiment: Inhibition of human CSE using L-Cys as the substrate by tandem well based HTS assay.
Assay [2] deals with T1, Cystathionine gamma-lyase. The assay is described as follows: Inhibition of human CSE using L-Cys as the substrate in presence of 0.025% Triton X-100 by tandem well based HTS assay.
Assay [3] in a line: Binding affinity to H2S assessed as absorbing of released H2S at 200 uM in presence of NaHS as H2S donor.
Assay [4] deals with T1, Cystathionine gamma-lyase. As to the kind of experiment: Inhibition of human CSE using H-Cys as the substrate by tandem well based HTS assay.
Assay [5] deals with T1, Cystathionine gamma-lyase. As to the kind of experiment: Inhibition of human CSE using L-Cys as the substrate in presence of 0.01% Triton X-100 by tandem well based HTS assay.
Assay [6] deals with T1, Cystathionine gamma-lyase. As to the kind of experiment: Competitive inhibition of human CSE using varying levels of L-Cys as substrate and fixed PLP levels.
Assay [7] in a line: Binding affinity to H2S assessed as absorbing of released H2S up to 100 uM in presence of NaHS as H2S donor. To be noted: dose microM <=100.
The target of assay [8] is T1, Cystathionine gamma-lyase. As to the kind of experiment: Inhibition of human CSE using H-Cys as the substrate by LC/MS/MS-based assay.
The species entered for assay [9] is Homo sapiens. The assay is described as follows: Selectivity index, ratio of IC50 for human CBS to IC50 for human DDC.
For assay [10], the target named is T1, Cystathionine gamma-lyase. The assay is described as follows: Binding affinity to human CSE by ITC analysis.
The target in assay [11] is T1, Cystathionine gamma-lyase. As to the kind of experiment: Non-covalent reversible inhibition of human CSE.
The species named for assay [12] is Homo sapiens. As to the kind of experiment: Selectivity index, ratio of IC50 for human CBS to IC50 for human CSE.
The target in assay [13] is Cystathionine gamma-lyase (Mus musculus) (UniProt Q8VCN5). As to the kind of experiment: Inhibition of CSE in mouse RAW264.7 cells assessed as reduction in amount of released H2S level at >= 200 uM by lead acetate method. Format: cell-based. To be noted: dose microM >=200.
The target of assay [14] is Cystathionine gamma-lyase (Mus musculus, UniProt Q8VCN5). The assay is described as follows: Inhibition of CSE in mouse RAW264.7 cells assessed as reduction in endogenous H2S level by AzMC probe based fluorescence assay. In kind it is cell-based.
Assay [15] addresses T1, Cystathionine gamma-lyase. As to the kind of experiment: Inhibition of human CSE expressed in mouse RAW264.7 cells assessed as reduction in amount of released H2S level at >=200 uM by lead acetate method. In kind it is cell-based. To be noted: dose microM >=200.

Calls of active or inactive are those of the source. No cut-off for these calls is given here.

T1 sequence (P32929 whole entry): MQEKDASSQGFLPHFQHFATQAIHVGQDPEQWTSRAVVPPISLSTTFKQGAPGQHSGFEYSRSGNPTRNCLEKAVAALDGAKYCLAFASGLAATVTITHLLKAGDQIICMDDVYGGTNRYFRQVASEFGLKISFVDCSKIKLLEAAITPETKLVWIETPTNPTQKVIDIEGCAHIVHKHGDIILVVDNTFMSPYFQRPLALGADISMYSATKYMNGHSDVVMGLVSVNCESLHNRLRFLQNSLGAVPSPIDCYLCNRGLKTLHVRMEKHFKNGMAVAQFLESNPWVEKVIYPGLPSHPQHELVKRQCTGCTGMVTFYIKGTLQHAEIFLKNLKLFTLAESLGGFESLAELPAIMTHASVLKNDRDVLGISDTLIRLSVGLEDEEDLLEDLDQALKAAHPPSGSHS
Sequence of Cystathionine gamma-lyase (Mus musculus) (Q8VCN5 whole entry): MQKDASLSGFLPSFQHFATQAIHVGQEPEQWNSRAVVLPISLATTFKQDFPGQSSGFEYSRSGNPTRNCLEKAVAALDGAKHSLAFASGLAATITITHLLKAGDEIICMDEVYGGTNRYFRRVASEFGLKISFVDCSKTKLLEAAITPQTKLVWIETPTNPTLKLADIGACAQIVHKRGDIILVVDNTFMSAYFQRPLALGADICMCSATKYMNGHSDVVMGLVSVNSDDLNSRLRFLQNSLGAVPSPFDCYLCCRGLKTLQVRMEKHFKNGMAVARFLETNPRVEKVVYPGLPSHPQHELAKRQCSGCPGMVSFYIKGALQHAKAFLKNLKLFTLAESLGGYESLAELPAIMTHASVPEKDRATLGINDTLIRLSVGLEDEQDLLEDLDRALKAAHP
Sequence of Cystathionine gamma-lyase (Mus musculus, UniProt Q8VCN5) (Q8VCN5 whole entry): as above

By IC50 is commonly meant the concentration that gives 50% inhibition. The compound `O=C1c2ccccc2C(=O)c2sc(Nc3ccc(Cl)cc3)nc21` showed an IC50 in assay [1] of less than 50 µM.

`Cc1ccc([S+]([O-])c2ccc([N+](=O)[O-])c3nonc23)cc1` (stereo not drawn) displayed an IC50 in assay [1] of less than 50 µM.

Consider `O=C1C(Cl)=C(N2CCN(C3=C(Cl)C(=O)c4ccccc4C3=O)CC2)C(=O)c2ccccc21`, for which the IC50 in [1] is less than 50 µM.

In turn, `CC1=C/C(=C(\c2cc(C)c(O)c(C(=O)O)c2)c2c(Cl)cccc2Cl)C=C(C(=O)O)C1=O` displayed an IC50 in assay [1] of 155 µM.

The compound `COC(=O)C1=CC(=C(c2ccc(O)c(C(=O)OC)c2)c2ccc(O)c(C(=O)OC)c2)C=CC1=O` had an IC50 in assay [1] greater than 200 µM.

For `CN1CCN(C2=C(Cl)C(=O)c3ccccc3C2=O)CC1`, the IC50 in assay [1] is less than 50 µM.

Compound `NC1=CC(=O)c2cccnc2C1=O` returned an IC50 in assay [1] of less than 50 µM.

On to `O=C1C=C/C(=N/C2C(=O)c3ccccc3C(=O)C2Cl)C=C1Cl` (stereo not drawn), for which the IC50 in assay [1] was less than 50 µM.

Broadly, the Ki is a measure of affinity in units of concentration, obtained from inhibition or displacement. A lower Ki goes with a stronger hold on the target. As usually defined, the Kd is the concentration at which binding is half-saturated. Higher therefore signals weaker binding. Regarding `COc1cccc2c1C(=O)C1=C(C[C@H](CC(=O)O)O[C@H]1C)C2=O`, the inhibition result in assay [2] and in assay [5] was “Active” throughout. For the same compound, the Activity in assay [3] was 20%. The IC50 in [4] was determined as 7.4 µM; in assay [1] it was 6.2 µM; in assay [8], 13.5 µM; in assay [11], 6.2 µM. Affinity in assay [6] was put at a Ki of 4.9 µM. Further, the outcome in [7] was inactive. For the same compound, the figures for the Ratio IC50 in the assay listed under Homo sapiens [9] and in the assay listed under Homo sapiens [12] were 32 and 161, respectively. Moreover, the Kd in [10] came to 3.8 µM.

As to `O=C(O)c1ccccc1O` [SALICYLIC ACID], the IC50 in [1] is greater than 200 µM.

In the case of `Nc1ccc(O)c(C(=O)O)c1` [MESALAMINE], the IC50 in [1] was greater than 200 µM.

With `Nc1ccc(Cc2ccc(NC3C(=O)c4ccccc4C(=O)C3Cl)cc2)cc1` (stereo not drawn), the IC50 in assay [1] was less than 50 µM.

With `CC1=CC(=C(c2cc(C)c(O)c(C(=O)O)c2)c2cc(C)c(O)c(C(=O)O)c2)C=C(C(=O)O)C1=O`, it took 59.9 µM to reach half-maximal inhibition in assay [1] (IC50).

For the compound `NC1=C(Br)C(=O)c2ncccc2C1=O`, in [1], the IC50 was less than 50 µM.

`O=CN/C=C\c1cc(O)ccc1O` returned an IC50 in assay [1] of less than 50 µM.

`O=C1C(Cl)=C(NCCN2CCNCC2)C(=O)c2ccccc21`: the IC50 in [1] was less than 50 µM.

Turning to `NC1=C(Cl)C(=O)c2ncccc2C1=O`, the IC50 in [1] is less than 50 µM.

`O=[N+]([O-])c1ccc(Sc2cccc[n+]2[O-])c2nonc12` showed an IC50 in assay [1] of less than 50 µM.

For `C#CCC(N)C(=O)O` (racemic), the inhibition entry in assay [13] and in assay [15] was “Active” in each case. The IC50 in assay [14] amounted to 371 µM.

As for `Cc1nc2c(N)nc(N)nc2nc1O`, the IC50 in [1] is less than 50 µM.

The compound `CC1=C/C(=C(\c2cc(C)c(O)c(C(=O)O)c2)c2c(Cl)ccc(S(=O)(=O)O)c2Cl)C=C(C(=O)O)C1=O` gave an IC50 in assay [1] of 143 µM.

On to `O=C(O)c1cc(/N=N/c2ccc(O)c(C(=O)O)c2)ccc1O` [OLSALAZINE], for which the IC50 in assay [1] is greater than 200 µM.

In [1], `O=C(O)C1=C/C(=C(\c2ccccc2)c2cc(C(=O)O)c(O)c3ccccc23)c2ccccc2C1=O` came in with an IC50 greater than 200 µM.

Regarding `O=C1C(Cl)=C(NCCCCCCNC2=C(Cl)C(=O)c3ccccc3C2=O)C(=O)c2ccccc21`, the 50% inhibitory concentration (IC50) in assay [1] is less than 50 µM.

Compound `CCNC1=CC(=O)c2ncccc2C1=O` displayed an IC50 in assay [1] of less than 50 µM.

On to `O=[N+]([O-])c1ccc(O)c2ncccc12` [NITROXOLINE], for which the inhibition result in assay [2] and in assay [5] was “Active” throughout. Besides, in assay [3], the Activity came out at 35%. Besides, the IC50 in assay [4] is 10.7 µM; in assay [1], 8 µM; in assay [8] it was 6 µM. Moreover, the outcome in assay [7] was inactive. Moreover, the Ratio IC50 in the assay filed under Homo sapiens [9] was determined as 12; in the assay listed under Homo sapiens [12], 62.

Take `CC1OC2CC(=O)OC2C2=C1C(=O)c1c(O)cccc1C2=O` (stereo not drawn): the IC50 in assay [1] was less than 50 µM.
